Data as given in patent US12077503B2, “Substituted cyclic amides and their use as herbicides” (FMC CORPORATION, priority 2015, dated 2024).

Key:
Format in all cases: in vivo
[1] = test system: barnyardgrass (Echinochloa crus-galli); test: Test A preemergence; conditions: Echinochloa crus-galli, pre-emergence, 240 h, preemergence, 0 to 100 scale where 0 is no effect and 100 is complete control, read-out: Barnyardgrass plant response rating
Method in brief: (§1)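 Preemergence directed soil spray on seeded pots, or postemergence application to plants 2–10 cm, one- to two-leaf. Solvent mixture non-phytotoxic, with surfactant. Scored ~10 d later, visually, 0–100 vs untreated.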

[2] = test system: Kochia (Kochia scoparia); test: Test A preemergence; conditions: Bassia scoparia, pre-emergence, 240 h, preemergence, 0 to 100 scale where 0 is no effect and 100 is complete control, read-out: Kochia plant response rating
Method in brief: as §1

[3] = test system: ryegrass, Italian (Italian ryegrass, Lolium multiflorum); test: Test A preemergence; conditions: Lolium multiflorum, pre-emergence, 240 h, preemergence, 0 to 100 scale where 0 is no effect and 100 is complete control, read-out: Ryegrass, Italian plant response rating
Method in brief: as §1

[4] = test system: pigweed (Amaranthus retroflexus); test: Test A preemergence; conditions: Amaranthus retroflexus, pre-emergence, 240 h, preemergence, 0 to 100 scale where 0 is no effect and 100 is complete control, read-out: Pigweed plant response rating
[5] = test system: ragweed (common ragweed, Ambrosia elatior); test: Test A preemergence; conditions: Ambrosia artemisiifolia, pre-emergence, 240 h, preemergence, 0 to 100 scale where 0 is no effect and 100 is complete control, read-out: Ragweed plant response rating
Method in brief: as §1

[6] = test system: giant foxtail (Setaria faberii); test: Test A postemergence; conditions: Setaria faberi, post-emergence, 240 h, postemergence, read-out: Foxtail, Giant plant response rating
Method in brief: as §1

[7] = test system: barnyardgrass (Echinochloa crus-galli); test: Test A postemergence; conditions: Echinochloa crus-galli, post-emergence, 240 h, postemergence, read-out: Barnyardgrass plant response rating
Method in brief: as §1

[8] = test system: Kochia (Kochia scoparia); test: Test A postemergence; conditions: Bassia scoparia, post-emergence, 240 h, postemergence, read-out: Kochia plant response rating
Method in brief: as §1

[9] = test system: ryegrass, Italian (Italian ryegrass, Lolium multiflorum); test: Test A postemergence; conditions: Lolium multiflorum, post-emergence, 240 h, postemergence
Method in brief: as §1

[10] = test system: wheat (Triticum aestivum); test: Test A postemergence; conditions: Triticum aestivum, post-emergence, 240 h, postemergence
Method in brief: as §1

[11] = test system: corn (Zea mays); test: Test A postemergence; conditions: Zea mays, post-emergence, 240 h, postemergence, read-out: Corn plant response rating
Method in brief: as §1

[12] = test system: blackgrass (Alopecurus myosuroides); test: Test A postemergence; conditions: Alopecurus myosuroides, post-emergence, 240 h, postemergence, read-out: Blackgrass plant response rating
Method in brief: as §1

[13] = test system: pigweed (Amaranthus retroflexus); test: Test A postemergence; conditions: Amaranthus retroflexus, post-emergence, 240 h, postemergence
Method in brief: as §1

[14] = test system: Galium (catchweed bedstraw, Galium aparine); test: Test A postemergence; conditions: Galium, post-emergence, 240 h, postemergence, read-out: Galium plant response rating
Method in brief: as §1

[15] = test system: ragweed (common ragweed, Ambrosia elatior); test: Test A postemergence; conditions: Ambrosia artemisiifolia, post-emergence, 240 h, postemergence
Method in brief: as §1

[16] = 125 g ai/ha, visual injury on 0 to 100 scale (0 no effect, 100 complete control), approx. 10 d
[17] = 500 g ai/ha, 0 to 100 scale, 0 is no effect, 100 is complete control

## CN1C[C@H](c2ccc(F)c(F)c2)[C@@H](C(=S)Nc2ccccc2F)C1=O (racemic) [Compound 1153]
[1]; 125 g ai/ha, approx. 10 d
  pest or weed control at 125 g/ha: 80%
[1]; 500 g ai/ha
  pest or weed control at 500 g/ha: 90%
[2]; 125 g ai/ha, approx. 10 d
  pest or weed control at 125 g/ha: 60%
[2]; 500 g ai/ha
  pest or weed control at 500 g/ha: 70%
[3]; 125 g ai/ha, approx. 10 d
  pest or weed control at 125 g/ha: 30%
[3]; 500 g ai/ha
  pest or weed control at 500 g/ha: 50%
[4]; 125 g ai/ha, approx. 10 d
  pest or weed control at 125 g/ha: 0%
[4]; 500 g ai/ha
  pest or weed control at 500 g/ha: 0%
[5]; 125 g ai/ha, approx. 10 d
  pest or weed control at 125 g/ha: 0%
[5]; 500 g ai/ha
  pest or weed control at 500 g/ha: 0%
[6]; [16]
  pest or weed control at 125 g/ha: 60%
[6]; [17]
  pest or weed control at 500 g/ha: 90%
[7]; [16]
  pest or weed control at 125 g/ha: 90%
[7]; [17]
  pest or weed control at 500 g/ha: 90%
[8]; [16]
  pest or weed control at 125 g/ha: 0%
[8]; [17]
  pest or weed control at 500 g/ha: 0%
[9]; 125 g ai/ha, visual injury vs untreated controls after approx. 10 d, 0 = no effect, 100 = complete control, read-out: Ryegrass, Italian plant response rating (0 to 100 scale)
  pest or weed control at 125 g/ha: 0%
[9]; 500 g ai/ha, 0 to 100 scale, 0 is no effect, 100 is complete control, read-out: Ryegrass, Italian plant response rating
  pest or weed control at 500 g/ha: 0%
[10]; 125 g ai/ha, visual injury vs untreated controls after approx. 10 d, 0 = no effect, 100 = complete control, read-out: Wheat plant response rating (0 to 100 scale)
  plant injury at 125 g/ha: 0%
[10]; 500 g ai/ha, 0 to 100 scale, 0 is no effect, 100 is complete control, read-out: Wheat plant response rating
  plant injury at 500 g/ha: 0%
[11]; [16]
  plant injury at 125 g/ha: 0%
[11]; [17]
  plant injury at 500 g/ha: 0%
[12]; [16]
  pest or weed control at 125 g/ha: 0%
[12]; [17]
  pest or weed control at 500 g/ha: 30%
[13]; 125 g ai/ha, visual injury vs untreated controls after approx. 10 d, 0 = no effect, 100 = complete control, read-out: Pigweed plant response rating (0 to 100 scale)
  pest or weed control at 125 g/ha: 0%
[13]; 500 g ai/ha, 0 to 100 scale, 0 is no effect, 100 is complete control, read-out: Pigweed plant response rating
  pest or weed control at 500 g/ha: 0%
[14]; [16]
  pest or weed control at 125 g/ha: 30%
[14]; [17]
  pest or weed control at 500 g/ha: 40%
[15]; 125 g ai/ha, visual injury vs untreated controls after approx. 10 d, 0 = no effect, 100 = complete control, read-out: Ragweed plant response rating (0 to 100 scale)
  pest or weed control at 125 g/ha: 0%
[15]; 500 g ai/ha, 0 to 100 scale, 0 is no effect, 100 is complete control, read-out: Ragweed plant response rating
  pest or weed control at 500 g/ha: 0%
